Assay results reported in publication PMC7099630 (Bioanalysis, 2016).

Experiments:
[1] = Stability of chloroquine in miniature pig plasma QC samples under different storage conditions; format: in vitro ADME; settings: miniature pig plasma (spiked QC samples), plasma QC standing prior to preparation, read-out: Benchtop stability (8 h), Recovery (mean ± SD, %)
[2] = PK study in Wuzhishan miniature pigs after a single oral dose, plasma by HILIC-MS/MS; format: in vivo, Wuzhishan miniature pig; settings: average, single oral dose 0.2 g
Method: Two ordinary grade, healthy, Wuzhishan miniature pig (6–8 months old, 7–9 kg) were purchased from Pearl Laboratory Animal Sci. & Tech. Co., Ltd (Dongguan, China) and maintained on standard food and water. The pigs were housed in individual cages and identified by ear tags. […] Blood samples (1.5 ml) were collected in heparinized tubes via the precaval or pelvic vein before medication and 0.5, 1, 2, 4, 6, 8, 12, 24, 36, 48, 72, 96 and 120 h after drug administration. All blood samples were immediately centrifuged at 2000 × g for 15 min (Centrifuge 5418, Eppendorf) and then stored at −70°C before analysis. The maximum plasma concentration (Cmax) and time of occurrence (tmax) were read directly from the concentration-time curve. Other PK parameters were calculated with DAS 3.2.4 software, using a noncompartmental model.

[3] = Stock solution stability of chloroquine; format: physicochemical; settings: 40 days at -20°C vs freshly prepared, read-out: Solution stability (40 day), Recovery (mean ± SD, %)
[4] = Stability of chloroquine in miniature pig plasma QC samples under different storage conditions; format: in vitro ADME
Method: Mimic pig plasma samples at LQC and HQC levels were analyzed along with freshly spiked calibration standards to obtain calculated concentrations.
Benchtop stability was evaluated by allowing QC samples to stand for 6 h prior to preparation. Unextracted QC samples were stored at -20°C for 40 days before extraction to test long-term stability. To analyze freeze–thaw stability, QC samples were stored at -20°C and then allowed to thaw to room temperature for three cycles. Processed QC samples were allowed to stand in the autosampler for 24 h before analysis to determine whether an occasional delay in injection, or reinjection of extracted samples, would lead to degradation.

[5] = healthy miniature pigs, noncompartmental model

A recovery at 8 h, 75 ng/ml ([1]; HQC (75 ng/ml)) of 103.5 ± 1%, a recovery at 8 h, 3 ng/ml ([1]; LQC (3 ng/ml)) of 104 ± 1.33% and an AUC(0-inf) ([2]; Wuzhishan miniature pig, pig, plasma, healthy miniature pigs, noncompartmental model) of 380 ng·h/mL were found for CCN(CC)CCCC(C)Nc1ccnc2cc(Cl)ccc12 (stereo not shown) [chloroquine, N’-(7-chloro-4-quinolyl)-N,N-diethyl-pentane-1,4-diamine] in this work. The half-life ([2]; Wuzhishan miniature pig, pig, plasma, healthy miniature pigs, noncompartmental model, read-out: elimination t1/2 (converted)) was 16.9 h, the Cmax ([2]; Wuzhishan miniature pig, pig, healthy miniature pigs (two animals), plasma) was 15 ng/mL and the Tmax ([2]; Wuzhishan miniature pig, pig, healthy miniature pigs, plasma) was 3 h. It also gave a CL/F [2, 5] of 54.15 L/h, a V/F [2, 5] of 1543.82 L and a recovery at 40 day, 75 ng/ml ([3]; HQC (75 ng/ml)) of 103 ± 2.46%. For the same compound, the recovery at 40 day, 3 ng/ml ([3]; LQC (3 ng/ml)) was 102 ± 6.75%, the “stability of prepared samples after storage in the autosampler” value ([4]; 24 h in autosampler) was “stable” and the “time stable during bench top preparation” value ([4]; miniature pig plasma) was “at least 6 h”. The “time stable on storage at −20°C” value ([4]; miniature pig plasma) was “at least 40 days”, the recovery at 75 ng/ml ([4]; miniature pig, miniature pig plasma (spiked QC samples), HQC (75 ng/ml), -20°C to room temperature, three cycles, read-out: Freeze–thaw stability (3 cycles), Recovery (mean ± SD, %)) was 106 ± 1.07% and the recovery at 40 day, 75 ng/ml ([4]; miniature pig, miniature pig plasma (spiked QC samples), HQC (75 ng/ml), unextracted plasma QC stored at -20°C for 40 days, read-out: Long-term stability (40 day), Recovery (mean ± SD, %)) was 104.3 ± 1.04%. It also gave a recovery at 3 ng/ml ([4]; miniature pig, miniature pig plasma (spiked QC samples), LQC (3 ng/ml), -20°C to room temperature, three cycles, read-out: Freeze–thaw stability (3 cycles), Recovery (mean ± SD, %)) of 106 ± 9.74%, a recovery at 40 day, 3 ng/ml ([4]; miniature pig, miniature pig plasma (spiked QC samples), LQC (3 ng/ml), unextracted plasma QC stored at -20°C for 40 days, read-out: Long-term stability (40 day), Recovery (mean ± SD, %)) of 106 ± 3.35% and a recovery at 24 h, 75 ng/ml ([4]; miniature pig, HQC (75 ng/ml), processed samples in autosampler for 24 h, read-out: Processed stability (24 h), Recovery (mean ± SD, %)) of 105.7 ± 0.34%. It also gave a recovery at 24 h, 3 ng/ml ([4]; miniature pig, LQC (3 ng/ml), processed samples in autosampler for 24 h, read-out: Processed stability (24 h), Recovery (mean ± SD, %)) of 98.9 ± 1.08%.
